Source: article PMC6538953, “Metal Ions Activate the Human Taste Receptor TAS2R7” (Chemical Senses, 2019)
Substitutions are numbered along the chain they refer to. Entries after “also recorded” stand apart in the source; their conditions may differ. Structures can show the parent of a compound that is named as a salt. Where two headings read alike, the source gives them in different places.

What was measured:
[1] = biological target: T1, human TAS2R7 E264^7.32K mutant (Homo sapiens, UniProt Q9NYW3, E264K); assay: Calcium mobilization assay, TAS2R7 mutant E264K; format: cell-based; conditions: 20 mM metal ions except 0.16 mM Al2(SO4)3; cromolyn 10 mM; Figure 6B
T1 construct: signal peptide: first 45 amino acid residues of rat somatostatin receptor 3 (N); expressed in transfected cells; host or cells: HEK293 PEAKrapid (ATCC CRL-2828), transient, co-transfected with Gα16-gust44
T1 sequence (Q9NYW3 1-318 E264K): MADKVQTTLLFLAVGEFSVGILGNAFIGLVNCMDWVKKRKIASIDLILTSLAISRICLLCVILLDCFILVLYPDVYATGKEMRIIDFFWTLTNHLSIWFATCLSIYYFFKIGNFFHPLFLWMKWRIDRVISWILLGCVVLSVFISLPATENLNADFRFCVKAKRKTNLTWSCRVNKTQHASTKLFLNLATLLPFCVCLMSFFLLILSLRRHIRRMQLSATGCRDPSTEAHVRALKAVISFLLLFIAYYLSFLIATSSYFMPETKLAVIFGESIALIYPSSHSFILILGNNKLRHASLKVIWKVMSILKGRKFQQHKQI
Source text: (§1) The coding sequences of human TAS2Rs were amplified from human genomic DNA, then subcloned into pcDNA3.1(+) vector, with the herpes simplex virus glycoprotein D epitope (HSV) at the C-terminal and a signal peptide consisting of the first 45 amino acid residues of the rat somatostatin receptor 3 at the N-terminal, essentially as described previously ([Bufe et al. 2002]). Point mutations in human TAS2R7 (NCBI Reference Sequence: NP_076408.1) were constructed by site-directed mutagenesis. All the constructs were confirmed by Sanger sequencing.
(§2) Human embryonic kidney 293 (PEAKrapid, ATCC # CRL-2828) cells were cultured in Opti-MEM medium with 4% fetal bovine serum. One day before transfection, cells were seeded on a 96-well plate at a density of 25 000 per well. Cells were then transiently transfected with a TAS2R construct (0.1 µg/well) along with a G protein Gα16-gust44 (0.1 µg/well) construct by Lipofectamine 2000 (0.5 µl/well). For controls, only Gα16-gust44 was used (mock transfection). Twenty-four hours after transfection, cells were washed with HBSS including 10 mM HEPES and loaded with Fluo-4 in the dark for 1 h. After incubation, cells were washed 2 times with HBSS (including 10 mM HEPES), incubated in the dark for another 30 min, and then washed with assay solution once more before running the assay using a FlexStation III reader. Relative fluorescence units (excitation at 494 nm, emission at 516 nm, and auto cutoff at 515 nm) were read every 2 s for 2 min. Calcium mobilization traces were recorded.
(§3) Calcium mobilization traces were raw data obtained from single wells. Changes in fluorescence (ΔF) were calculated as the peak fluorescence minus baseline fluorescence ([Lei et al. 2015]). The calcium mobilization was quantified as the percentage of change (ΔF) relative to baseline (F). […] Calcium mobilization traces and bar graphs along with dose-dependent plots were all generated by GraphPad Prism 7. Analysis of variance with Dunnett’s multiple comparisons test was used for statistical analysis. *P < 0.05.
To assess the importance of these residues, we performed site-directed mutagenesis. We mutated the negatively charged residues E16^1.42, E264^7.32, and E271^7.39 to Q (glutamine), K (lysine), or L (leucine). The facing H94^3.37 was mutated to F (phenylalanine). HEK293 cells that expressed mutant receptors along with Gα16-gust44 were examined for their responses to metal ions (20 mM for all except 0.16 mM Al2(SO4)3) and cromolyn (10 mM, as a positive control) to assess receptor’s function. To determine the expression level of each receptor, we stained the wild-type or mutant receptor-transfected cells using an anti-HSV antibody since all the receptors are tagged with HSV at c-terminal. […]

[2] = biological target: T2, human TAS2R7 (Homo sapiens, UniProt Q9NYW3); assay: Calcium mobilization assay, HEK293 cells transfected with TAS2R7 and Gα16-gust44; format: cell-based; conditions: for Dose dependence of TAS2R7 response: Figure 2A,C; for Compounds triggering detectable responses in cells transfected with TAS2R7: at the concentrations reported previously (Meyerhof et al. 2010), Figure 4A
T2 construct: first 45 residues of rat somatostatin receptor 3 (signal peptide) (N); expressed in transfected cells; host or cells: HEK293 (PEAKrapid, ATCC CRL-2828)
T2 sequence (Q9NYW3 1-318): T1 sequence (Q9NYW3 1-318 E264K) with K264E
Source text: as §1
All tested compounds were purchased from Sigma–Aldrich, with the exception of diphenidol hydrochloride (Reagent World) and L-praziquantel (manufactured by Shaoxing Pharmaceutical Co. Ltd.). All the metal ions were dissolved in the assay solution (130 mM NaCl, 5 mM KCl, 2 mM CaCl2, and 10 mM glucose; pH 7.4) unless specified otherwise, and the bitter compounds (diphenidol, quinine, and chlorphenamine) were dissolved first in dimethyl sulfoxide (DMSO) as stock solution and then diluted with the assay solution; the final DMSO concentration was below 0.5%, with the exception of cromolyn, which is dissolved in the assay solution directly. For our initial screening (Table 1), Hanks’ balanced salt solution (HBSS, ThermoFisher, catalog no. 14025134) supplemented with 10 mM hydroxyethyl piperazineethanesulfonic acid (HEPES) were used as the assay buffer.
as §2, §3
To determine whether a TAS2R responds to metal ions, we expressed all 25 human bitter receptors individually in HEK293 cells (PEAKrapid) by transient transfection of a TAS2R along with a coupling chimeric G protein, Gα16-gust44. All TAS2Rs were cloned from human genomic DNA. Activation of human TAS2Rs was monitored by the calcium mobilization assay ([Lei et al. 2015]). We tested these receptors individually for their responses toward metal ions: ZnSO4 (20 mM), CuSO4 (20 mM), and MgCl2 (20 mM) (Table 1, Figure 1A). […] To determine the breadth of tuning of TAS2R7 toward metal ions, we also tested MnCl2 (20 mM), Al2(SO4)3 ([…]), and CaCl2 (20 mM) (Figure 1B).

[3] = biological target: T3, human TAS2R7 E264^7.32L mutant (Homo sapiens, UniProt Q9NYW3, E264L); assay: Calcium mobilization assay, TAS2R7 mutant E264L; format: cell-based; conditions: 20 mM metal ions except 0.16 mM Al2(SO4)3; cromolyn 10 mM; Figure 6B
T3 construct: signal peptide: first 45 amino acid residues of rat somatostatin receptor 3 (N); expressed in transfected cells; host or cells: HEK293 PEAKrapid (ATCC CRL-2828), transient, co-transfected with Gα16-gust44
T3 sequence (Q9NYW3 1-318 E264L): T1 sequence (Q9NYW3 1-318 E264K) with K264L
Source text: as §1, §2
Calcium mobilization traces were raw data obtained from single wells. Changes in fluorescence (ΔF) were calculated as the peak fluorescence minus baseline fluorescence ([Lei et al. 2015]). The calcium mobilization was quantified as the percentage of change (ΔF) relative to baseline (F). […] Calcium mobilization traces and bar graphs along with dose-dependent plots were all generated by GraphPad Prism 7. Analysis of variance with Dunnett’s multiple comparisons test was used for statistical analysis. *P < 0.05. […]

[4] = biological target: T2, human TAS2R7; set-up: method as in Meyerhof et al. 2010; conditions: ref Meyerhof et al. 2010; cited from earlier work
[5] = biological target: T4, human TAS2R14 (Homo sapiens, UniProt Q9NYV8); assay: Calcium mobilization assay, HEK293 cells transfected with TAS2R14 and Gα16-gust44; format: cell-based; conditions: 0.5 mM; Figure 3B
T4 construct: first 45 residues of rat somatostatin receptor 3 (signal peptide) (N); expressed in transfected cells; host or cells: HEK293 (PEAKrapid, ATCC CRL-2828)
T4 sequence (Q9NYV8 1-317): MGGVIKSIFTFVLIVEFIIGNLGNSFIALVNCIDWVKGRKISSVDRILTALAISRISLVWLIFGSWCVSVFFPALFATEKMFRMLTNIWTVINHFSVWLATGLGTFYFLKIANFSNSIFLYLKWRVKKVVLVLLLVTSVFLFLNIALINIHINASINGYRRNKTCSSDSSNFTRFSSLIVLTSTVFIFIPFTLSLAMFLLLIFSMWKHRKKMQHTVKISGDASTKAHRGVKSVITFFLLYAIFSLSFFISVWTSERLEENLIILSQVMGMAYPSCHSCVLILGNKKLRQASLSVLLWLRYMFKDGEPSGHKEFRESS
Source text: The coding sequences of human TAS2Rs were amplified from human genomic DNA, then subcloned into pcDNA3.1(+) vector, with the herpes simplex virus glycoprotein D epitope (HSV) at the C-terminal and a signal peptide consisting of the first 45 amino acid residues of the rat somatostatin receptor 3 at the N-terminal, essentially as described previously ([Bufe et al. 2002]). Point mutations in human TAS2R7 (NCBI Reference Sequence: NP_076408.1) were constructed by site-directed mutagenesis. All the constructs were confirmed by Sanger sequencing. […]
Human embryonic kidney 293 (PEAKrapid, ATCC # CRL-2828) cells were cultured in Opti-MEM medium with 4% fetal bovine serum. […] After incubation, cells were washed 2 times with HBSS (including 10 mM HEPES), incubated in the dark for another 30 min, and then washed with assay solution once more before running the assay using a FlexStation III reader. Relative fluorescence units (excitation at 494 nm, emission at 516 nm, and auto cutoff at 515 nm) were read every 2 s for 2 min. Calcium mobilization traces were recorded.
Calcium mobilization traces were raw data obtained from single wells. Changes in fluorescence (ΔF) were calculated as the peak fluorescence minus baseline fluorescence ([Lei et al. 2015]). The calcium mobilization was quantified as the percentage of change (ΔF) relative to baseline (F). […]

[6] = Supplementary Figure S2, read-out: EC50, TAS2R7, comparison of anions
[7] = assay solution containing calcium, Figures 3A, 4C, read-out: EC50, TAS2R7, in the presence of calcium
[8] = assay solution containing no calcium, Figures 3A, 4C, read-out: EC50, TAS2R7, in the absence of calcium
[9] = assay solution with 2 mM CaCl2, Figure 2, read-out: EC50, TAS2R7 concentration-response

Compound | Dose dependence of TAS2R7 response [2] | EC50 [2, 7] [mM] | EC50 [2, 8] [mM] | EC50 [2, 9] [mM] | TAS2R7 reported to respond to bitter compounds [4] | Compounds triggering detectable responses in cells transfected with TAS2R7 [2] | other results
O=S(=O)([O-])[O-].[Zn+2] [ZnSO4] | dose-dependent responses | 2.41 | 3.49 |  |  |  | Response of E264K mutant receptor [1]: specific loss of responses; EC50 [2, 6]: 3.21 mM; Response of E264L mutant receptor [3]: responded
[Cl-].[Cl-].[Zn+2] [ZnCl2] |  |  |  |  |  |  | EC50 [2, 6]: 3.42 mM
[Cl-].[Cl-].[Mg+2] [MgCl2] | dose-dependent responses | 7.84 | 5.78 | 6.07 ± 1.07 |  |  | Maximal response of TAS2R7 in the absence versus presence of calcium ([2]; assay solution without calcium compared with calcium): smaller
C=C[C@H]1C[N@@]2CC[C@H]1C[C@H]2[C@H](O)c1ccnc2ccc(OC)cc12 [quinine, reference compound] |  |  |  |  | respond | none | 
O=S(=O)([O-])[O-].[Cu+2] [CuSO4] | dose-dependent responses | 1.89 | 0.85 | 1.04 ± 0.36 |  |  | 
OC(CCCN1CCCCC1)(c1ccccc1)c1ccccc1 [diphenidol, diphenidol hydrochloride, reference compound] |  |  |  |  | respond | none | 
O=C(C1CCCCC1)N1CC(=O)N2CCc3ccccc3[C@@H]2C1 [L-praziquantel] |  |  |  |  |  |  | Response amplitude of TAS2R14 in the absence versus presence of calcium [5]: reduced response amplitude
CN(C)CCC(c1ccc(Cl)cc1)c1ccccn1 (centres unmarked) [chlorphenamine, reference compound] |  |  |  |  | respond | none | 
[Ca+2].[Cl-].[Cl-] [CaCl2] | dose-dependent responses | 7.56 | 4.7 | 5.27 ± 0.5 |  |  | Activation of TAS2R7 by metal ions ([2]; 20 mM, Figure 1A,B): activated the receptor
[Cl-].[K+] [KCl, potassium chloride] |  |  |  |  |  |  | Activation of TAS2R7 by monovalent salt ([2]; any concentration tested, Figures 1C,D and 2A): did not activate the receptor; also recorded: not responsive
